Drawing on patent US20150306226A1, “COMPOSITION” (RATIOPHARM GMBH, priority 2012, published 2015), this text covers solubility for one compound.

Each structure is given as a SMILES string. Values after ≈ are worked out from the molar mass of the structure shown.

The series in a line: solubility in aqueous buffer. It counts as physicochemical. As to conditions: aqueous buffer pH 7.4, room temperature. The protocol:
Enantiomerically pure compound (I) has low solubility in aqueous solution. In aqueous buffer pH 7.4 the solubility measured at room temperature is about 0.01 mg/ml. Poor solubility typically leads to poor oral bioavailability, fed/fasted variations in bioavailability, cumbersome and inconvenient dosage forms, and may necessitate the use of harsh solubilising agents that are associated with adverse side effects.

`CCOc1cc(C(CS(C)(=O)=O)N2C(=O)c3cccc(NC(C)=O)c3C2=O)ccc1OC` (stereo not shown) [compound (I), N-[2-[1-(3-ethoxy-4-methoxyphenyl)-2-(methylsulfonyl)ethyl]-1,3-dioxo-2,3-dihydro-1H-isoindol-4-yl]acetamide] yielded a solubility of approximately 10 µg/mL (≈ 21.7 µM).
